According to US6521215B2, “Compositions and methods for tooth treatment” (priority 1999, dated 2003):

Assays:
[1] = scanning electron microscope, 5000× magnification
[2] = Attin et al., 1997, cited from earlier work
[3] = enamel exposed to 10% carbamide peroxide; McCracken and Haywood, 1996; cited from earlier work
[4] = Protease enhanced tooth whitening, shade comparison of left and right halves of the enamel surface in vitro; set-up: species or system human; details: protease slurry (papain in distilled water) alone vs untreated half of tooth
Protocol: In this experiment, specimens were prepared in vitro by dividing the enamel surface of the teeth into left and right halves with a visible light cured polymer. This allowed a shade comparison of one side to the other. Specimens were divided into two groups. In both groups, one side of the teeth received an application of protease. Protease slurry was prepared by mixing papain (papaya, crude, Type III) with distilled water and applied via a syringe tip applicator. One group of specimens was then immersed in 30% hydrogen peroxide solution. The other group received no further treatment. Thus, in the first group, one-half of the tooth was first treated with papain and then with hydrogen peroxide, and the second half of the tooth was treated with only hydrogen peroxide. In the other group, one-half of the tooth was treated with papain and the second half of the tooth was untreated.

Q: Which “microscopic pitting of the enamel surface” value [1] does the source give for `OO` [hydrogen peroxide] here?
A: not seen

Q: With `NC(N)=O.OO` [carbamide peroxide] as the molecule, how does the enamel microhardness ([2]; 10% carbamide peroxide (Opalescence®)) read?
A: significantly decreased

Q: And the “amount of calcium lost from enamel (average)” value [3]?
A: 1.06 micrograms/mm^2

Q: Which “hardness of bleached enamel specimens after application” value ([2]; high concentration fluoride application) does the source give for `F` [fluoride] here?
A: restore hardness

B1: papain (protein, UniProt P00784 134-345, looked up)
Papain: IPEYVDWRQKGAVTPVKNQGSCGSCWAFSAVVTIEGIIKIRTGNLNEYSEQELLDCDRRSYGCNGGYPWSALQLVAQYGIHYRNTYPYEGVQRYCRSREKGPYAAKTDGVRQVQPYNEGALLYSIANQPVSVVLEAAGKDFQLYRGGIFVGPCGNKVDHAVAAVGYGPNYILIKNSWGTGWGENGYIRIKRGTGNSYGVCGLYTSSFYPVKN
modifications: crude preparation
notes: Protease slurry prepared by mixing papain (papaya, crude, Type III) with distilled water
Q: With B1 as the molecule, how does the “whitening effect (change in shade) of treated tooth side” value [4] read?
A: will remove stains and “whiten” a tooth
